According to ChEMBL document CHEMBL1201862, “PubChem BioAssay data set” (2004):
Calls of active or inactive are those of the source.

Key:
Troponin, cardiac muscle = Troponin, cardiac muscle (Homo sapiens, UniProt P19429+P45379+P63316); test: Fluorescence-based biochemical high throughput dose response assay for activators of the calcium sensitivity of cardiac Regulated Thin Filaments (RTF). [Related pubchem assays (depositor defined):AID493008, AID493018, AID504382, AID504383]; assay type: protein-complex assay
Cytochrome P450 1A2 = target: T1, Cytochrome P450 1A2 (Homo sapiens, UniProt P05177);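 further: PubChem cytochrome P450 panel assay, CYP1A2 panel member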
T1 sequence (P05177 whole entry): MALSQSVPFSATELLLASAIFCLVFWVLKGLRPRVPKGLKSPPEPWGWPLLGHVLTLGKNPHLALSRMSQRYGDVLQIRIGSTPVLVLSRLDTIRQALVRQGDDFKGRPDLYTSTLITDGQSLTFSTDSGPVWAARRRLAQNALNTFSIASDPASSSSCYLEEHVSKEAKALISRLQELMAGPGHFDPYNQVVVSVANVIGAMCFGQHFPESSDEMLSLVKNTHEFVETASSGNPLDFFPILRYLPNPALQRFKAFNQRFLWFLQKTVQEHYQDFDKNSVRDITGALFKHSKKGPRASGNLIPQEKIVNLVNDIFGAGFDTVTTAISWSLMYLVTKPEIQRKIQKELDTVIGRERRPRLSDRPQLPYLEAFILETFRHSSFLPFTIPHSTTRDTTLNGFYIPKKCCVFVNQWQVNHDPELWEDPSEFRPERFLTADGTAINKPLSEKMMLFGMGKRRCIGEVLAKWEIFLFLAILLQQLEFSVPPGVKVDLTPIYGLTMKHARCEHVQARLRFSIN

Cytochrome P450 2C9 = Cytochrome P450 2C9 (Homo sapiens, UniProt P11712)
Cannabinoid receptor 2 [1] = target: T2, Cannabinoid receptor 2 (Homo sapiens, UniProt P34972); test: SAR analysis of antagonists of the Cannabinoid Receptor 2 using an Image-Based Assay - Set 2. [Related pubchem assays (depositor defined):AID1961, AID1965]; assay type: functional
[2] = target: G-protein coupled receptor 55 (Homo sapiens, UniProt Q9Y2T6); test: SAR analysis of selective Agonists of GPR55 using an Image-Based Assay - Set 2. [Related pubchem assays (depositor defined):AID1961, AID1965]; assay type: functional
Cannabinoid receptor 2 [3] = target: T2, Cannabinoid receptor 2; test: SAR analysis of agonists of the Cannabinoid Receptor 2 using an Image-Based Assay - Set 2. [Related pubchem assays (depositor defined):AID1961, AID1965]; assay type: functional
[4] = target: T3, G-protein coupled receptor 35 (Homo sapiens, UniProt Q9HC97); test: SAR analysis of Agonists of the GPR35 Receptor using an Image-Based Assay - Set 3. [Related pubchem assays (depositor defined):AID1961, AID1965]; assay type: functional
Cannabinoid receptor 1 [5] = target: T4, Cannabinoid receptor 1 (Homo sapiens, UniProt P21554); test: SAR analysis of antagonists of the Cannabinoid Receptor 1 using an Image-Based Assay - Set 3. [Related pubchem assays (depositor defined):AID1961, AID1965]; assay type: functional
Cannabinoid receptor 1 [6] = target: T4, Cannabinoid receptor 1; test: SAR analysis of agonists of the Cannabinoid Receptor 1 using an Image-Based Assay - Set 3. [Related pubchem assays (depositor defined):AID1961, AID1965]; assay type: functional
[7] = target: T3, G-protein coupled receptor 35; test: SAR analysis of Antagonists of the GPR35 Receptor using an Image-Based Assay - Set 4. [Related pubchem assays (depositor defined):[…]]; assay type: functional
[8] = Luminescence Cell-Based Dose Retest to Confirm Inhibitors of Cancer Stem Cells. [Related pubchem assays (depositor defined):AID2717, AID2721]; assay type: functional; details: Homo sapiens
[9] = target: T5, Type-1 angiotensin II receptor (Homo sapiens, UniProt P30556); test: agonist activity at AGTR1 – cell-based, uHTS hits, selectivity assay for APJ receptor agonist project, dose response (AID 488865); assay type: functional;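 further: beta-arrestin recruitment to AT1 measured by enzyme fragment complementation luminescence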
T5 sequence (P30556 whole entry): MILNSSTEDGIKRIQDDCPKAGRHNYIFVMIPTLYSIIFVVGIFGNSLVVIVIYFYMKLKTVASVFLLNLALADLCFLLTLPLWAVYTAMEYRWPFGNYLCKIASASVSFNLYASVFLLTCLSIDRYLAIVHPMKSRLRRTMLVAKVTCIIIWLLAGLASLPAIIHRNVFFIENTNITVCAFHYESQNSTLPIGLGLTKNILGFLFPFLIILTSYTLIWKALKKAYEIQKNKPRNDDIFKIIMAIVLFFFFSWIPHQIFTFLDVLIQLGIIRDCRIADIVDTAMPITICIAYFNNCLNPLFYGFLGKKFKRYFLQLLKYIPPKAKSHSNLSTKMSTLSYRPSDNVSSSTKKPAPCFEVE

[10] = target: DNA damage-inducible transcript 3 protein (Mus musculus, UniProt P35639); assay type: functional, Cricetulus griseus
HEK293 [11] = test: inhibition of NOD1-driven NF-kB reporter – cell-based, luminescence, uHTS, primary screen (AID 1578); assay type: functional; details: Homo sapiens
HEK293 [12] = test: cells; assay type: functional, cell-based; details: Homo sapiens
HEK293 [13] = test: cells; assay type: functional, cell-based; details: Homo sapiens; remark: listed apart in the source
[14] = target: Nucleotide-binding oligomerization domain-containing protein 2 (Homo sapiens, UniProt Q9HC29); test: inhibition of NOD2-driven NF-kB reporter – cell-based, luminescence, uHTS, HEK293 (AID 1566); assay type: functional
HEK293 [15] = test: NOD2 signaling inhibitors in MDP-stimulated cells, cell-based, uHTS, luminescence (AID 2001); assay type: functional; details: Homo sapiens
HEK293 [16] = test: cells; assay type: functional, cell-based; details: Homo sapiens; remark: listed apart in the source
[17] = target: T6, Microphthalmia-associated transcription factor (Homo sapiens, UniProt O75030); test: reducers of TRPM1 reporter luminescence, concentration series – cell-based, SK-MEL-5, cherry-picked, set 3, MITF inhibitor project, dose response (AID 493073); assay type: functional;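 further: SK-MEL-5 melanoma cells with luciferase driven by the MITF target TRPM1 promoter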
T6 sequence (O75030 whole entry): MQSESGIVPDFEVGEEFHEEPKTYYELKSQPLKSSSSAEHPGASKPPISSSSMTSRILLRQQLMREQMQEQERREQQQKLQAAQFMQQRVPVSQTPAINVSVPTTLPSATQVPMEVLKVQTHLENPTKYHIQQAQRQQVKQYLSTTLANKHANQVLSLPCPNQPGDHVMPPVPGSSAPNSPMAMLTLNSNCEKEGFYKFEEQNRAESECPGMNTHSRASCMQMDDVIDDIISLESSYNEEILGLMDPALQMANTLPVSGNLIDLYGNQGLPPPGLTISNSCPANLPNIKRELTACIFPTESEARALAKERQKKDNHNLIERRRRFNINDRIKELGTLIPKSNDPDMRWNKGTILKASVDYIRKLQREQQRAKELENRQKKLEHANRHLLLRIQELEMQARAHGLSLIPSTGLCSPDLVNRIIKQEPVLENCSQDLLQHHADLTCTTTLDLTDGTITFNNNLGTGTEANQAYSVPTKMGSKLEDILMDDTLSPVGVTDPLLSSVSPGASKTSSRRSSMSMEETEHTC

[18] = target: DNA (cytosine-5)-methyltransferase 1 (Homo sapiens, UniProt P26358); test: inhibition of DNA methylation by DNMT1 – biochemical, fluorescent molecular beacon, confirmation (AID 602386); assay type: functional
[19] = target: T7, Histone-lysine N-methyltransferase NSD2 (Homo sapiens, UniProt O96028); assay type: biochemical
T7 sequence (O96028 whole entry): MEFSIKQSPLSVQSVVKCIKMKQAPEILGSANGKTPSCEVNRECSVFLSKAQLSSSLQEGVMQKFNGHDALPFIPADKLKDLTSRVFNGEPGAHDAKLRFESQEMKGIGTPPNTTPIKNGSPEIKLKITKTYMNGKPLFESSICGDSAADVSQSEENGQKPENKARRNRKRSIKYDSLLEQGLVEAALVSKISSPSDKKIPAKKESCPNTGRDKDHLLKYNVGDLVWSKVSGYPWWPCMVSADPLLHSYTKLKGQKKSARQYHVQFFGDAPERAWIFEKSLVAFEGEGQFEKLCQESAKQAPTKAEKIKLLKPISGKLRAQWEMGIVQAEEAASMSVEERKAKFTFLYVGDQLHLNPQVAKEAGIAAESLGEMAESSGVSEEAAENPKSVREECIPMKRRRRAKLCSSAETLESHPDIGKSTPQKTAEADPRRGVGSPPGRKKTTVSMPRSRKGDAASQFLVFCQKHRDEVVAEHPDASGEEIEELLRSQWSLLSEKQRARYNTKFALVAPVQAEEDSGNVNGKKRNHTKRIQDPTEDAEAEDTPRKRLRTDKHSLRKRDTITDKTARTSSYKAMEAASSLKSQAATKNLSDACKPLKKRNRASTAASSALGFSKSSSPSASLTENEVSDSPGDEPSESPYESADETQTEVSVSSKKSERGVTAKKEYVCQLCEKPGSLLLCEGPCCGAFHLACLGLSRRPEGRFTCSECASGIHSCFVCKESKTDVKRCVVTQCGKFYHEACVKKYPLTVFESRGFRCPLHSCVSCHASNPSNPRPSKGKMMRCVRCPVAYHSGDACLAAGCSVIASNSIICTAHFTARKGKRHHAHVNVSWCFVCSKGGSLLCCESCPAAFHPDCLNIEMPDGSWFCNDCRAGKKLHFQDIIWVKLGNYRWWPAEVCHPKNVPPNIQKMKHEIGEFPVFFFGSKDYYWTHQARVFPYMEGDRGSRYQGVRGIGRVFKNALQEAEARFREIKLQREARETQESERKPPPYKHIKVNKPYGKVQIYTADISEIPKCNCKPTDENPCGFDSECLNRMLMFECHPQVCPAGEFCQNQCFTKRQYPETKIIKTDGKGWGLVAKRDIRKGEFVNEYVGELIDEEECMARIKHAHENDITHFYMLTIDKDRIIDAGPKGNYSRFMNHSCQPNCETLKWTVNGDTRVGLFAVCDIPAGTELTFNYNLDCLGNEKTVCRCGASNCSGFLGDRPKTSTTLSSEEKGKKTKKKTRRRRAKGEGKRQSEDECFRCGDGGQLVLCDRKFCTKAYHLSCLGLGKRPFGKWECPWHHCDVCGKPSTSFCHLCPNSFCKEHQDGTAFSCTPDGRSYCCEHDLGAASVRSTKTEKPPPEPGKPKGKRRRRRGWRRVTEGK

[20] = viability loss in THP-1 monocytes – THP-1 cells, cytotoxicity control for Vif-APOBEC3G degradation inhibitor project, dose response (AID 1117359); assay type: functional; details: THP-1
[21] = target: T8, Runt-related transcription factor 1/Core-binding factor subunit beta (Homo sapiens, UniProt Q01196+Q13951); test: disruptors of Runt domain/CBFb-SMMHC interaction – biochemical, FRET, Cerulean-Runt, Venus-CBFb-SMMHC, uHTS, […] (AID 1434); assay type: protein assay
[22] = target: T9, Voltage-gated N-type calcium channel alpha-1B subunit/Amyloid beta A4 precursor protein-binding family A member 1 (Homo sapiens, UniProt Q00975+Q02410); assay type: protein assay
[23] = target: T8, Runt-related transcription factor 1/Core-binding factor subunit beta; test: Runt domain/CBFb-SMMHC interaction disruptors – biochemical, TR-FRET (AID 1438); assay type: protein assay
[24] = target: T9, Voltage-gated N-type calcium channel alpha-1B subunit/Amyloid beta A4 precursor protein-binding family A member 1; assay type: protein assay; remark: listed apart in the source
[25] = target: T10, Heat shock factor protein 1 (Mus musculus, UniProt P38532); test: enhancement of HSF1-driven luciferase signal – cell-based, NIH3T3, luminescence, dose retest, confirmation (AID 435004); assay type: functional;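 further: stress induced by proteasome inhibitor MG132 added 30 min after compound; luciferase reporter driven by HSF1 response element in NIH3T3 cells; actives raise luminescence as potentiators of the MG132 stress response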
T10 sequence (P38532 whole entry): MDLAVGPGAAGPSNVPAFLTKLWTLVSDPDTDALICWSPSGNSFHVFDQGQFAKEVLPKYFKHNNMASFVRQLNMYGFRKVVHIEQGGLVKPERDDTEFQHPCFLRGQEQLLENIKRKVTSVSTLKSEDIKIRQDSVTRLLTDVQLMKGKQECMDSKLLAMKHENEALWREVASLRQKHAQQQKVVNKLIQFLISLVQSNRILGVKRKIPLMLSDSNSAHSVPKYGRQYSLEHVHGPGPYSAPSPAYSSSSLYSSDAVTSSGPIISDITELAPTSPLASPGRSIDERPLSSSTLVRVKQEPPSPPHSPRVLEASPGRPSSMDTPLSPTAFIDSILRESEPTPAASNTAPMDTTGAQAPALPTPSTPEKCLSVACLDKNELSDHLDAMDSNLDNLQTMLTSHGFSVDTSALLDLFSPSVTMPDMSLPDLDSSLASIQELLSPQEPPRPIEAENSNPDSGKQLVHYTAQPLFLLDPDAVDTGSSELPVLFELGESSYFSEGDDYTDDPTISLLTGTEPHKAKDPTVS

Cc1cc2nc(C3CCCN(C(=O)NCc4ccccc4)C3)[nH]c2cc1C (stereo not drawn)
EC50 (Troponin, cardiac muscle): > 71.6 µM (inactive) | AC50 (Cytochrome P450 1A2): 25.1 µM (inconclusive) | AC50 (Cytochrome P450 2C9): 22.4 µM (inconclusive)

COc1ccc(S(=O)(=O)N2CCOCC2)cc1NC(=O)c1cc2c(s1)CCCCCC2
IC50 (Cannabinoid receptor 2 [1]): > 32 µM (inactive) | EC50 [2]: 17.7 µM (inactive) | EC50 (Cannabinoid receptor 2 [3]): > 32 µM (inactive) | EC50 [4]: > 32 µM (inactive) | IC50 (Cannabinoid receptor 1 [5]): 18.2 µM (inactive) | EC50 (Cannabinoid receptor 1 [6]): > 32 µM (inactive) | IC50 [7]: > 32 µM (inactive)

CCCCCCc1cc2cc(-c3nnc(-c4cc(OC)c(OC)c(OC)c4)o3)c(=O)oc2cc1O
AC50 [8]: 7.35 µM (active) | EC50 [9]: > 100 µM (inactive)

COc1ccc(/C=C/C(=O)NC(=S)NNC(=O)c2cccnc2)cc1
Absolute IC50 (CHOP) [10]: 10 µM

CC(C)N1C(=O)/C(=C/C=C/c2ccco2)C(=O)N(Cc2ccco2)C1=O
EC50 (HEK293 [11]): > 20 µM (inactive) | IC50 (HEK293 [12]): 18.8 µM (active) | IC50 (HEK293 [13]): > 20 µM (inactive) | EC50 [14]: > 20 µM (inactive) | IC50 (HEK293 [15]): > 20 µM (inactive) | IC50 (HEK293 [16]): > 20 µM (inactive) | AC50 [17]: 9.97 µM (active) | IC50 [18]: 8.31 µM (active) | AC50 [19]: 8.26 µM (active) | CC50 [20]: > 40 µM (active)

Cc1cc(C)cc(-n2c3nc4ccccc4nc3c3c(=O)n(Cc4ccco4)cnc32)c1
IC50 [21]: > 100 µM (inactive) | IC50 [22]: 4.14 µM (active) | IC50 [23]: 34 µM (active) | IC50 [24]: 1.28 µM (active) | EC50 [25]: > 260 µM (inactive)
